Common to all, as to format: functional
Experiment [1] deals with Rattus norvegicus. Kind of experiment: Tumor initiating activity measured as incidence of % aberrent cells with chromosomal aberrations, at given dose of 50 mg/kg.
Experiment [2] has as its system Rattus norvegicus. Briefly: Tumor initiating activity measured as number of chromosomal aberrations per cell, at a dose of 50 mg/kg.
Experiment [3] is filed under the species Mus musculus. Briefly: Tumor initiating activity measured as percentage of mice with papillomas at a dose of 100 nmol.
For experiment [4], the species on record is Mus musculus. Kind of experiment: Tumor initiating activity measured as number of papillomas on mouse skin at a dose of 100 nmol.
The subject of experiment [5] is Rattus norvegicus. Briefly: Tumor initiating activity measured as incidence of % aberrent cells with chromosomal aberrations, at given dose of 25 mg/kg.
The test system of experiment [6] is Rattus norvegicus. Briefly: Tumor initiating activity measured as number of chromosomal aberrations per cell, at given dose 50 mg/kg.
The test system of experiment [7] is Rattus norvegicus. Kind of experiment: Tumor initiating activity measured as number of chromosomal aberrations per cell, at a dose of 25 mg/kg.
The species named for experiment [8] is Mus musculus. Briefly: Tumor initiating activity measured as number of papillomas on mouse skin at a dose of 200 nmol.
Experiment [9] is filed under the species Mus musculus. Kind of experiment: Tumor initiating activity measured as percentage of mice with papillomas at a dose of 200 nmol.
Experiment [10] is filed under the species Mus musculus. Kind of experiment: Tumor initiating activity measured as number of papillomas on mouse skin at a dose of 50 nmol.
Experiment [11] is filed under the species Mus musculus. Briefly: Tumor initiating activity measured as percentage of mice with papillomas at a dose of 50 nmol.

The values below come from ChEMBL document CHEMBL1123943, “Biologically active dihydrodiol metabolites of polycyclic aromatic hydrocarbons structurally related to the potent carcinogenic hydrocarbon 7,12-dimethylbenz[a]anthracene” (1988).

With `Oc1ccc2c(ccc3cc4ccccc4cc32)c1O`, the Activity in the experiment on Rattus norvegicus [1] stood at 2.2%. Besides, the aberrations per cell in the experiment on Rattus norvegicus [2] was 0.02 aberrations/cell.
The matching figures for `Cc1c2ccccc2cc2c1ccc1c(O)c(O)ccc12`: 6.6% and 0.07 aberrations/cell.
The molecule `Cc1ccc2cc3c(ccc4c(O)c(O)ccc43)c3c2c1CC3` yielded an Activity in the experiment listed under Mus musculus [3] of 100%. The papillomas per mouse in the experiment listed under Mus musculus [4] was found to be 7.7 papillomas/mouse.
`Cc1ccc2cc3c(ccc4ccccc43)c3c2c1CC3` [3-METHYLCHOLANTHRENE]: in the experiment filed under Mus musculus [3], the Activity was determined as 97%. Besides, the papillomas per mouse in the experiment filed under Mus musculus [4] amounted to 7.13 papillomas/mouse.
As to `Cc1c2ccccc2c(C)c2c1ccc1c(O)c(O)ccc12`, the Activity in the experiment with Rattus norvegicus [5] was determined as 22.2%; with Rattus norvegicus [1] it was 53%. Further, the aberrations per cell was determined as 1.44 aberrations/cell with Rattus norvegicus [6] and 0.31 aberrations/cell with Rattus norvegicus [7].
`c1cc2c3c(c4ccc5ccccc5c4cc3c1)CC2` [CHOLANTHRENE]: in the experiment filed under Mus musculus [8], the papillomas per mouse amounted to 6.9 papillomas/mouse. Also, in the experiment listed under Mus musculus [9], the Activity was 93%.
For `Oc1ccc2c(ccc3c4c5c(cccc5cc32)CC4)c1O` the same measures were 3.32 papillomas/mouse and 80%.
On to `Cc1c2cccc3c2c(c2ccc4ccccc4c12)CC3`, for which the papillomas per mouse in the experiment filed under Mus musculus [10] worked out at 14.7 papillomas/mouse. Further, the Activity in the experiment listed under Mus musculus [11] is on record as 100%.
For `Cc1c2cccc3c2c(c2ccc4c(O)c(O)ccc4c12)CC3` the same measures were 16.5 papillomas/mouse and 100%.
With `Cc1c2ccccc2cc2ccc3c(O)c(O)ccc3c12`, the Activity in the experiment with Rattus norvegicus [5] is on record as 12.8%. Moreover, the aberrations per cell in the experiment on Rattus norvegicus [7] was determined as 0.17 aberrations/cell.
